Data on 20 sequences can be found in PMC3057979 (PLoS ONE, 2011).

Assay [1] deals with CD4^+ T cells of C. burnetii RSA 439 infected C57BL/6 mice. Format: cell-based.
The test system of assay [2] is CD4^+ T cells of recombinant protein vaccinated C57BL/6 mice. It is filed as cell-based.
Assay [3] deals with CD4^+ T cells of PI-WCV vaccinated C57BL/6 mice. The conditions noted are these: 20 h.
Assay [4] has as its target T1, H-2 I-A^b (purified IA^b MHC class II) (Mus musculus, UniProt P14434+P14483).
T1 construct: endogenous in cells; host or cells: mouse B-cell lymphoma LB27.4
T1 sequence (P14434 24-256): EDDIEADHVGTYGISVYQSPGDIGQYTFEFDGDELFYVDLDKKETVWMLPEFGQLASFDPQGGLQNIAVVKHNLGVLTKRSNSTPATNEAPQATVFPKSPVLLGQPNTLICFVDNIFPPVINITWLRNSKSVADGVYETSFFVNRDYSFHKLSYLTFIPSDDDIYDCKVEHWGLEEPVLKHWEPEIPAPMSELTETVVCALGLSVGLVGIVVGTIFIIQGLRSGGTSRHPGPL
T1 sequence (P14483 28-265): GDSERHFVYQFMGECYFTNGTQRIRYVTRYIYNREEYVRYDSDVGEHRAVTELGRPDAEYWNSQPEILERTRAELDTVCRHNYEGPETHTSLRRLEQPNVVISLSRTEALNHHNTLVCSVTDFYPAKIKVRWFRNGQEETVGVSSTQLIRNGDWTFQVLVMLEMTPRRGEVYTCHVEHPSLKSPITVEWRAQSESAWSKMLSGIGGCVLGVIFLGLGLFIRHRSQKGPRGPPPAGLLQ
The assay can be described thus: biochemical. Format: binding.

Assay [5] deals with IgG antibody production against CBU 0383, CBU 1157, CBU 1910. Also noted: species or system C57BL/6 mice. The conditions noted are these: mouse, in vivo.

pIC50: −log10 of the molar value. Where no end group is shown, it is not given here.

AKKLFNDPASPVAGN [CBU191081-95] registered an SI-Infection in assay [1] of 0.79±0.44. The SI-rAgs in assay [2] came out at 4.8. The SI-WCV vaccination in assay [3] came out at 0.63±0.31.
Sequence DLPAAIVDAIAPQEG [CBU1645138-152] returned an SI-Infection in assay [1] of 0.67±0.34. For the same sequence, the SI-rAgs in assay [2] came out at 3. Also, the SI-WCV vaccination in assay [3] amounted to 0.80±0.62.
In assay [4], DLRYHAPIYGAVHPR [CBU 1157_177–191] gave a pIC50 of 6.71. In assay [3], this sequence had an SI-WCV vaccination of 3.67±1.53.
The sequence ENAKKLFNDPASPVA [CBU191079-93] had an SI-Infection in assay [1] of 0.93±0.35. Also, the SI-rAgs in assay [2] is 5.6. Moreover, in assay [3], the SI-WCV vaccination is given as 0.93±0.84.
In turn, HYLVNHPEVLVEASQ [CBU 1910_45–59] gave a pIC50 in assay [4] of 6.53. Moreover, the SI-WCV vaccination in assay [3] turned out to be 23.77±13.0.
In turn, IRNKLKIQATINNAK [CBU038398-112] came in with an SI-Infection in assay [1] of 0.43±0.57. Also, the SI-rAgs in assay [2] is on record as 2.22. Moreover, the SI-WCV vaccination in assay [3] stood at 1.07±0.51.
Consider IRRLVGSFPAEERIG [CBU1645270-284], for which, in assay [1], the SI-Infection amounted to 1.53±0.74. Further, the SI-rAgs in assay [2] is listed as 2.7. This sequence displayed an SI-WCV vaccination in assay [3] of 3.10±1.15.
Regarding KLFNDPASPVAGNPH [CBU 1910_83–97], the pIC50 in assay [4] is 6.45. This sequence returned an SI-WCV vaccination in assay [3] of 3.67±1.12.
The matching figures for LSLMLNYPNSADRYY [CBU 1157_108–122]: 5.98 and 4.83±2.44.
Take PWRYIRSFPILASSG [CBU 1157_63–77]: in assay [4], the pIC50 is 7.47. The SI-WCV vaccination in assay [3] came to 6.80±1.25.
The matching figures for RDSFNNFDASIISKY [CBU 0383_69–83]: 6.29 and 5.33±3.10.
Sequence RGPWRYIRSFPILAS [CBU115761-75] yielded an SI-Infection in assay [1] of 0.57±0.34. Also, the SI-rAgs in assay [2] turned out to be 7.17. Further, the SI-WCV vaccination in assay [3] is on record as 1.87±1.67.
In turn, RLVGSFPAEERIGRT [CBU 1645_272–286] had a pIC50 in assay [4] of 5.73. In assay [3], this sequence gave an SI-WCV vaccination of 3.50±0.96.
For the sequence RNNYRDSFNNFDASI [CBU038365-79], the SI-Infection in assay [1] turned out to be 3.25±2.21. Further, the SI-rAgs in assay [2] worked out at 3.06. The SI-WCV vaccination in assay [3] is 5.57±1.79.
The matching figures for RYHAPIYGAVHPRWL [CBU1157179-193]: 2.37±1.05, 4.37 and 1.97±0.75.
The matching figures for RYPNEPSRFEPKHID [CBU164510-24]: 1.56±1.29, 2.38 and 2.03±1.27.
On to VHHYLVNHPEVLVEA [CBU 1910_43–57], for which the SI-Infection in assay [1] was 28.27±9.54. In addition, the “IgG antibodies against recombinant proteins after peptide immunization alone” value in assay [5] is reported as “did not generate detectable antibodies”. Also, in assay [2], the SI-rAgs turned out to be 15.9. This sequence also had an SI-WCV vaccination in assay [3] of 22.73±12.51.
YDSLTTPTASVCQSE [CBU 1645_196–210]: the pIC50 in assay [4] is 6.21. The same sequence returned an SI-WCV vaccination in assay [3] of 4.13±1.01.
For the sequence YIWHFVDGHPIQNQW [CBU0383127-141], the SI-Infection in assay [1] was 0.79±0.28. Also, the SI-rAgs in assay [2] was 16.22. In assay [3], this sequence registered an SI-WCV vaccination of 1.33±1.43.
In assay [1], YVYDSLTTPTASVCQ [CBU1645194-208] gave an SI-Infection of 0.43±0.17. Further, in assay [2], the SI-rAgs was 6. For the same sequence, in assay [3], the SI-WCV vaccination is given as 0.67±0.25.

As usually defined, the pIC50 is the negative decadic logarithm of the IC50, by convention in mol/L.
